Assay [1] deals with erythrocytes. The experiment in a line: Assay of capacity for shape change (LPC-induced echinocytosis, microscopy). The format is cell-based, human. The method, then:
Microscopy. Cross-linked and reversed cells were prepared as described in the section on erythrocyte preparation, etc., with the addition of 0.5% bovine serum albumin to the solution prior microscopic examination. Cells were examined using an Nikon Optiphot, equipped with PlanApo 20×objective.
Assay of capacity for shape change. To induce echinocytosis ([…]), erythrocytes were incubated with 10μg/ml LPC for 2 min at room temperature. Erythrocytes were pretreated with 5 mM DTBP for 1 h and then subjected to 10 μg/ml LPC treatment. Microscopic examination of cell morphology was performed. Erythrocytes were pretreated with 5 mM DTBP for 1 h, reversed with 10 mM DTT for 20 min and then subjected to 10 μg/ml LPC treatment. Microscopic examination followed. Erythrocyte response to LPC of normal, cross-linked and reversed cells was compared.

Assay [2] has as its system Human erythrocytes. The experiment in a line: Freeze-thaw damage (percentage hemolysis after freezing at −20° C.). It is filed as cell-based. As to conditions: 5 mM diamide for 1 h at room temperature; 1 h freezing at −20° C.; FIG. 2. The method, then: Erythrocytes pre-treated with diamide were frozen immediately or after 3 h of incubation in the freezing medium (glucose 200 mM, raffinose 139 mM, sodium citrate 33 mM, sodium phosphate dibasic 12 mM, sodium phosphate monobasic 2.9 mM, ammonium phosphate 40 mM, adenine 2 mM) to allow loading with glucose. Freezing was carried out at −20° C. in a freezer for […] and samples were thawed in a water bath at room temperature.
After completion of the freeze-thaw cycle samples were centrifugated. After centrifugation (Eppendorfcentrifuge for 3 min at 3000×g) the supernatants were processed for hemolysis measurements. For determination of hemolysis the Cyanmethemoglobin method was applied. Absorption was read at 540 nm using a Hewlett Packard spectrophotometer. Percentage hemolysis was determined by Equation 1, supra. Percentage hemolysis was taken as a measure for freeze-thaw damage.
Human erytirocytes were pre-treated at room temperature with 5 mM diamide for 1 h. After the incubation was completed the unreacted reagent was removed by a washing procedure and the cells were re-suspended in a freezing medium. Erythrocytes were frozen immediately or after three hours of incubation in the freezing medium to allow loading with glucose. Percentage hemolysis represents the freeze-thaw damage after 1 h freezing at −20° C. in a freezer.

The test system of assay [3] is Human erythrocytes. The experiment in a line: 'gravity-driven' filtration assay of erythrocyte deformability (5 μm pore filter). It is filed as cell-based. As to the method:
The deformability of erythrocytes after crosslinking with diamide and its reversal with dithioerythritol is measured using a “gravity-driven” filtration assay. Diluted erythrocyte suspensions are passed through a 5 μm pore filter The relative filtration index is determined using the following expression: [formula] […] Human erythrocytes subjected to crosslinking with diamide and subsequent reversal of the crosslinking dithioeiythritol were passed through a 5 μm pore filter. Relative filtration index was determined.

Assay [4] deals with erythrocytes. Put plainly: Methemoglobin formation during freeze-drying. The format is cell-based. The note with it: CO-treated erythrocytes, FIG. 1. From the text:
Freeze-drying of hemoglobin leads to the formation of significant amount of methemoglobin. Circular dichroism studies for samples of hemoglobin freeze-dried with or without protectant have shown that the absence of a protector weakly influences the confirmation in the vicinity of the heme and increases the helicity of protein chains (Thirion C et al., 1983). Freeze-drying hemoglobin without denaturing and oxidizing it was made possible by the use of carbohydrates (Labrude PB et al., 1980). […] Since red cell membrane is non-permeable to disaccharides and only lowly permeable to monosaccharides, this limits the use of carbohydrates as protectants for intracellular hemoglobin. We explored CO-treatment as a means to prevent methemoglobin formation during freeze-drying. CO-treatment stabilizes hemoglobin in the CO-hemoglobin form by liganding CO. […] To reverse the CO-treatment, a hollow fiber oxygenator can be used.

Another assay concerns Red cells. The experiment in a line: Oxygen carrying ability (oxygen content by CO-oximeter). It is filed as cell-based, human. As to conditions: cells subjected to CO-treatment. As to the method:
A semi-quantitative measure of oxygen carrying ability by DTBP cross-linked and reversed cells was performed. Red cells cross linked with 5 mM DTBP for different incubation times and cells reversed with DTT (see above) were processed through a membrane oxygenator to replace CO with oxygen. Oxygen saturation of the cells was measured using a CO-oximeter. After the oxygenation, cells were subjected to deoxygenation under a stream of nitrogen for 30 min. Percentage oxygen was measured again by the CO-oximeter. Oxygen binding and releasing properties for cross-linked, reversed and normal cells were compared.
We measured oxygen content (Vol%O2) of cells subjected to cross-linking and reversal with a CO-oximeter 282. […] CO-treated and cross-linked cells with 5 mM DTBP for 5 h, which underwent re-oxygenation in the membrane oxygenator had oxygen content of 7.3 Vol%O2.

The subject of assay [5] is Human erythrocytes. Put plainly: cells. As to conditions: Homo sapiens, Erythrocyte, read-out: hemolysis in distilled water after cross-linking reversal. The format is cell-based. As to the method: Packed human erythrocytes from healthy donors were obtained from the National Naval Medical Center (Bethesda, Md.) within 48 h of donation and used within 7 days. Packed erythrocytes were washed twice in phosphate buffer solution (PBS) then re-suspended in PBS (1 vol PBS:1 vol packed cells). The erythrocyte suspension (100 ml) was placed on ice and carbon monoxide (CO) was bubbled through it for 2 hours. Saturation with CO (100%) was achieved under these conditions as detected with a CO-oximeter. Erythrocytes were packed and cross-linked with DTBP at 4° C. for different incubation times (from 1 to 24 h; 9 vol cross-linking solution: 1 vol packed cells). The cross-linking solution was prepared by dissolving DTBP in PBS (pH 7.8). After incubation DTBP was removed by repeated washing of the red cells in PBS (IEC Centra centrifuge for 10 min at 1008×g). Reversal of the cross-linking was carried out at room temperature with the reducing agent dithioerythritol (DTT) at a concentration of 10 mM in PBS (9 vol reducing solution: 1 vol packed cells) for 20 min or as indicated in the figure legends. DTT was removed by repeated washing of the red cells in PBS (IEC Centra centrifuge for 10 min at 1008×g). CO-treatment was reversed at room temperature using a hollow fiber membrane oxygenator model Capiox 308. Erythrocytes were processed through the oxygenator for 1 h. Saturation with oxygen (92%) was reached as detected with a CO-oximeter.
Erythrocytes were cross-linked with DTBP at different concentrations for different incubation times. 1 ml of the erythrocyte suspension was taken out at regular incubation times centrifuged and DTBP was removed (Eppendorf centrifuge for 3 min at 3000×g). Distilled water (1 ml) was added to the remaining packed cells. After 30 min the cells were again centrifugated (Eppendorf centrifuge for 3 min at 3000×g), and the supernatants were processed for hemolysis measurements. For determination of hemolysis the cyanmethemoglobin method was applied (see Brown in “Hematology: principles and procedures” pp. 29-31 (Lea and Febiger, eds., 1984)). Absorbance was measured at 540 nm and percent hemolysis was determined by Equation (1), supra, where the control sample was lysed in distilled water.
Erythrocyte stability in distilled water was tested after crosslinking reversal as well. Red blood cells were first cross-linked with DTBP then treated with DTT at different concentrations (from 1 to 10 mM) for different incubation times (from 5 to 20 min). Hemolysis in distilled water was measured as described above.

In assay [6] the test system is Red blood cells. Put plainly: Deformability measurements with an ektacytometer (Shear-scan, Osmo-scan). It is filed as cell-based, human. As to conditions: DTBP cross-linked cells after treatment with DTT; Osmo-scan. As to the method: Red blood cells were cross-linked with 5 mM DTBP for 1 h. Cross-linking was reversed with 10 mM DTT for 20 min. Deformability measurements were made with fresh untreated, cross-linked, and reversed cells as well as with untreated packed cells stored in CPDA-1 for 6 weeks at 4° C. The effects of cross-linking and reversal on red blood cell deformability were measured with an ektacytometer (Technicon).
The ektacytometer is a laser diffraction viscometer described in detail by Bessiss and Mohandas. Intact red blood cells and ghosts suspended in solution produce a diffuse circular laser diffraction pattern. The instrument takes advantage of the fact that when a shear force is applied to the solution crossing the beam the cells align in the direction of shear and begin deforming into uniformly oriented ellipsoids. The laser diffraction pattern then takes on an ellipsoidal shape oriented 90° from the major elliptical cell axis, with the ratio of the long axis to the short axis length determined by the degree of cell deformation. A signal proportional to mean cellular ellipticity is derived from photometric measurement of this laser diffraction pattern in the two axis directions and is designated the deformability index (DI).
Two types of deformability profiles were generated in the present experiments. […] Shear-scans were run with 40 μl of concentrated cell suspension (80% hematocrit) mixed with 3.0 ml of 3.1% (w/v) polyvinylpyrrolidone (P, av-MW 360 kD) solution containing 138 mM NaCl, 6.34 mM Na2HPO4, 2 mM NaH2PO4, and 0.04% (w/v) NaN3 with pH=7.35±0.05, osmolality=290 mOsmol/kg (by freezing point depression), and viscosity=20 cp (assumed). Osmo-scans were run by continuous addition of this suspension medium containing 100 μl of cells to a PVP solution with a graded salt concentration. Salt gradients were made by addition of high salt PVP solution with 386 mM NaCI (osmolality=750 mOsmol/kg) to a low salt PVP solution with 2.5 mM NaCl (osmolality=40 mOsmol/kg). Conductance measurements of the cell suspension in the viscometer provided an indirect measure of osmolality, which was calculated from a standard calibration curve.
Data was recorded onto a computer, and curves were fitted and plotted using custom routines in Matlab (The Math Works Inc, Natick, Mass.). Shear scans were fitted with a polynomial of degree 6 from which the maximum DI (DImax) was calculated. Osmo-scans were fitted with a running average, and DImax was calculated within the range of 180-240 mOsmol/Kg, along with the osmolality corresponding to 1/2DImax at hypertonic salt concentrations (0′), where DI decreases with increasing intracellular viscosity secondary to cell shrinkage and increased hemoglobin concentration (see Mohandas et al., J. Clin. Invest. 66563-73(1980)). The osmolality corresponding to the minimum DI (Omin) at hypotonic salt concentrations, where DI falls due to cell swelling, was also calculated. The height of the small DI peak thought to be associated with the sudden availability of excess membrane for deformation as intracellular ions and water are lost in the lower range of hypotonic salt (63-125 mOsmol/Kg) concentrations was also recorded (see Clark et al., Blood 61 899-910 (1983)).

Assay [7] has as its system Red blood cells. Put plainly: Metabolic viability: ATP content of red blood cells over time. The format is cell-based, human. As to conditions: cross-linked cells treated with 10 mM DTT prior to initial glucose exposure. As to the method: The metabolic viability of cross-linked cells was assayed by monitoring the production and depletion of ATP over time. DTBP cells were cross-linked in 5 mM DTBP 150 mM glucose for 5 hours at 4° C. The cells were then washed 3 times and incubated in 150 mM glucose for an additional 19 hrs. After washing to remove the glucose the cells were incubated at 4° C. in PBS for 72 hrs before being returned to 150 mM glucose for the final 24 hr incubation. At each time point cells were removed, washed, and spectrophotometrically assayed for ATP as described in the text. The glucose controls were cells treated in the same manor but without crosslinking, and the control cells are cells without exposure to glucose.

The subject of assay [8] is Human erythrocytes. The experiment in a line: Osmotic fragility test. It is filed as cell-based. As to conditions: cells treated for 1 h with 5 mM DTBP, reversed with DTT. The method, then:
An osmotic fragility test (a common clinical test) was performed on erythrocytes cross-linked with 5 mM DTBP for different incubation times and on erythrocytes cross-linked and reversed with DTT. Briefly, 1 ml of the erythrocyte suspension was taken out at regular incubation times, centrifuged, and DTBP or DTT was removed (Eppendorf centrifuge for 3 min at 3000×g). 1 ml of solutions containing buffered sodium sodium chloride at different concentrations (from 1% to 0.1% NaCl in phosphate buffer) were added to the packed cells. After 30 min the samples were centrifugated (Eppendorf centrifuge for 3 min at 3000×g), and the supernatants were processed for hemolysis measurements.

With lysolecithin [LPC], in the assay with erythrocytes [1] (10 μg/ml LPC, normal cells), the “shape change of normal red blood cells” value is “shape change from discocytes to echinocytes”.
For the compound `CN(C)C(=O)/N=N/C(=O)N(C)C` [diamide], in the assay on Human erythrocytes [2], the “Percentage hemolysis (freeze-thaw damage)” value is reported as “cryoprotection of erythrocytes”. This compound also gave a Relative filtration index with Human erythrocytes [3] (Crosslinking with 5 mM diamide, 5 μm pore filter) of 0.71 ± 0.03.
With `[C-]#[O+]` [CO, carbon monoxide], the “methemoglobin formation during freeze-drying” value in the assay on erythrocytes [4] was “prevents hemoglobin oxidation to methemoglobin”. In the assay on Red cells, the oxygen content was found to be 0.7 Vol%O2.
Take `O[C@H](CS)[C@@H](O)CS` [DTT, dithioerythritol]: the hemolysis at 10000 µM in the assay on Human erythrocytes [5] was determined as 100%. In addition, in the assay on Red blood cells [6], the “DImax and O′ after reversal” value is reported as “restored these indices towards normal values”; the “Omin (osmolality corresponding to the minimum DI)” value amounted to 128 mOsmol/Kg. Also, the “reversal of shape stabilizing action of DTBP” value with erythrocytes [1] (5 mM DTBP 1 h, 10 mM DTT 20 min, then 10 μg/ml LPC) is “completely reversible”. In addition, the “amount of ATP present after reversal” value with Red blood cells [7] is on record as “did not change the amount of ATP present”. Moreover, the Relative filtration index with Human erythrocytes [3] (diamide-crosslinked cells, reversal of the cross-linking with 5 mM dithioerythritol) was 0.83 ± 0.02. The Relative filtration index in the assay on Human erythrocytes [3] (diamide-crosslinked cells, reversal of the cross-linking with 10 mM dithioerythritol) is 0.90 ± 0.01. Further, the “reversal of the effect of DTBP on osmotic fragility” value in the assay with Human erythrocytes [8] is given as “complete reversal”.

The record behind these values is patent publication US6436705B1, “Shape stabilized erythrocytes” (The United States of America as represented by the …, priority 1997, dated 2002).
